Assay results reported in ChEMBL document CHEMBL1131901, “Synthesis and opiate receptor binding properties of 17-methyl-6,7-dehydro-3,14-dihydroxy-4,5alpha-epoxy-6,7:4',5'-pyrimidin omorphinans” (Bioorg Med Chem Lett, 1999).

Tests used:
Mu-type opioid receptor [1] = target: T1, Mu-type opioid receptor (Homo sapiens, UniProt P35372); assay: Agonistic activity against human opioid Mu receptor transfected into Chinese hamster ovary (CHO) cells using [3H]DAMGO as radioligand; assay type: functional, cell-based
[2] = target: T2, Delta-type opioid receptor (Homo sapiens, UniProt P41143); assay: (§1) Agonistic activity against human opioid Delta receptor transfected into Chinese hamster ovary (CHO) cells using [3H]Cl-DPDPE as radioligand; assay type: functional, cell-based
[3] = target: T3, Kappa-type opioid receptor (Homo sapiens, UniProt P41145); assay: (§2) Agonistic activity against human opioid Kappa receptor transfected into Chinese hamster ovary (CHO) cells using [3H]U-69593 as radioligand; assay type: functional, cell-based
[4] = target: T2, Delta-type opioid receptor; assay: Binding affinity towards human opioid Delta receptor transfected into Chinese hamster ovary (CHO) cells using [3H]Cl-DPDPE as radioligand.; assay type: cell-based
[5] = target: T3, Kappa-type opioid receptor; conditions: CHO
Description: Antagonistic activity against human opioid Kappa receptor transfected into Chinese hamster ovary (CHO) cells using [3H]U-69593 as radioligand

Mu-type opioid receptor [6] = target: T1, Mu-type opioid receptor; assay: Binding affinity towards human opioid Mu receptor transfected into Chinese hamster ovary (CHO) cells using [3H]DAMGO as radioligand; assay type: cell-based
[7] = target: T3, Kappa-type opioid receptor; assay: Binding affinity towards human opioid Kappa receptor transfected into Chinese hamster ovary (CHO) cells using [3H]U-69593 as radioligand.; assay type: cell-based
[8] = target: T2, Delta-type opioid receptor; assay: as §1; assay type: functional, cell-based; remark: listed apart in the source
Mu-type opioid receptor [9] = target: T1, Mu-type opioid receptor; assay: Agonistic activity against human opioid Mu receptor transfected into Chinese hamster ovary (CHO) cells using [3H]-DAMGO as radioligand; assay type: functional, cell-based
[10] = target: T3, Kappa-type opioid receptor; assay: as §2; assay type: functional, cell-based; remark: listed apart in the source
Mu-type opioid receptor [11] = target: T1, Mu-type opioid receptor; assay: as §1; assay type: functional, cell-based

T3 sequence (P41145 whole entry): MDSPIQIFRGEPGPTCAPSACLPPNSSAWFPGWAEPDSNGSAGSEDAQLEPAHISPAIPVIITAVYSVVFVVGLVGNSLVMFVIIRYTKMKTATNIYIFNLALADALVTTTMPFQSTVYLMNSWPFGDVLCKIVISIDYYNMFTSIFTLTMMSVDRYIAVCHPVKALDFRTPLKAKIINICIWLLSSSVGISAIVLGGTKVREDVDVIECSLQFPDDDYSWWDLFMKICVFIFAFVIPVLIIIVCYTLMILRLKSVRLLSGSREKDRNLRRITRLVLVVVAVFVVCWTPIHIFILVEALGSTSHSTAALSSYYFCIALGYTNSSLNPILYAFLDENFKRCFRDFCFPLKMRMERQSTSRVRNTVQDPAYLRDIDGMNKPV
T2 sequence (P41143 whole entry): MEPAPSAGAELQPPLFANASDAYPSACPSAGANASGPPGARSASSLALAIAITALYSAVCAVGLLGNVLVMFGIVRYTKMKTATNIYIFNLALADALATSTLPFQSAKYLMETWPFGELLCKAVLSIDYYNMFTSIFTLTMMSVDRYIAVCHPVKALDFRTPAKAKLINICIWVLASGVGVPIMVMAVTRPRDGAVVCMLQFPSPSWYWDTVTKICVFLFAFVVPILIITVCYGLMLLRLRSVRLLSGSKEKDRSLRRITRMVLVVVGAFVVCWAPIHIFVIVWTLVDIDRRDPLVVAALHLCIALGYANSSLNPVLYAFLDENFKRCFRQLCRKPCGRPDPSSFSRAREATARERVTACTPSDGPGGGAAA
T1 sequence (P35372 whole entry): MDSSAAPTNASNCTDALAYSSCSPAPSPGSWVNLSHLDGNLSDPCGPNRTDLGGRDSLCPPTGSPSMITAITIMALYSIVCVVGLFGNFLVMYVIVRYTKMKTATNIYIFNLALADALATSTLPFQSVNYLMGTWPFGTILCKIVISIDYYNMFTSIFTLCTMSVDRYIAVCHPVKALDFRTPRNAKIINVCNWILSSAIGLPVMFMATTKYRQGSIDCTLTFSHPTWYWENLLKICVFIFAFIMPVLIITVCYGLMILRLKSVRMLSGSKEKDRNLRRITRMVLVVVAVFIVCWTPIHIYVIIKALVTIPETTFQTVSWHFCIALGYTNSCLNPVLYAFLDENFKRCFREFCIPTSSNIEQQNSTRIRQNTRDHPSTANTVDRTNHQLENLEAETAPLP

Row | SMILES | Stimulation (Mu-type opioid receptor [1]) | Stimulation [2] | Stimulation [3] | Ki [4] | Ke [5] | Ki (Mu-type opioid receptor [6]) | Ki [7] | EC50 [8] | EC50 (Mu-type opioid receptor [9]) | EC50 [10] | Stimulation (Mu-type opioid receptor [11])
1 | CN1CCC23c4c5ccc(O)c4OC2c2nc(O)ncc2CC3(O)C1C5 (centres undefined) | 87.7% | 97% | 40.7% |  |  |  |  |  |  |  | 
2 | CN1CCC23c4c5ccc(O)c4OC2c2n[nH]cc2CC3(O)C1C5 (centres undefined) | 80.3% | 75.2% | 18.9% | 12.2 nM | 59.3 | 1.72 nM | 11.9 nM | 25 nM | 19.3 nM |  | 
3 | Cc1ncc2c(n1)C1Oc3c(O)ccc4c3C13CCN(C)C(C4)C3(O)C2 (centres undefined) | 109% | 60% | 97% | 24 nM |  | 5.26 nM | 68.5 nM | 95.9 nM | 71.9 nM | 2730 nM | 
4 | CN1CCC23c4c5ccc(O)c4OC2c2[nH]c(=O)ncc2CC3(O)C1C5 (centres undefined) |  |  |  | 19.1 nM |  | 3.75 nM | 12.3 nM | 61.5 nM | 110 nM | 1020 nM | 
5 | CN1CCC23c4c5ccc(O)c4OC2c2nc(-c4ccccc4)ncc2CC3(O)C1C5 (centres undefined) | 89.4% | 92.5% | 49.5% | 6.48 nM |  | 7.34 nM | 45 nM | 24 nM | 58.4 nM | 1420 nM | 
6 | CN1CCC23c4c5ccc(O)c4OC2c2nc(N)ncc2CC3(O)C1C5 (centres undefined) |  |  | 34.3% | 19 nM |  | 7.32 nM | 21.1 nM | 66.1 nM | 75.2 nM | 1080 nM | 78.7%
